Measurements published in patent publication US20060068007A1, “Class of surfactant-like materials” (Boehringer Ingelheim Pharmaceuticals, Inc., priority 2004, published 2006).

Experiment: Solubility of the active agent depending on pH
Format: physicochemical
Details: basic conditions
Description: The tablets were prepared similarly as described in Example 3.

solubility: higher solubility in basic conditions
SMILES: COc1ccc2c(O[C@@H]3C[C@H]4C(=O)N[C@]5(C(=O)O)CC5/C=C\CCCCC[C@H](NC(=O)OC5CCCC5)C(=O)N4C3)cc(-c3csc(NC(C)C)n3)nc2c1 (stereo partly drawn) [(Z)-(1S,4R,14S,18R)-14-Cyclopentyloxycarbonylamino-18-[2-(2-isopropylamino-thiazol-4-yl)-7-methoxy-quinolin-4-yloxy]-2,15-dioxo-3,16-diaza-tricyclo[14.3.0.0^4,6]nonadec-7-ene-4-carboxylic acid]
